Source: PMC12090182, “Repurposing of the RIPK1-Selective Benzo[1,4]oxazepin-4-one Scaffold for the Development of a Type III LIMK1/2 Inhibitor” (ACS Chemical Biology, 2025)
Where two headings read alike, the source gives them in different places.

How the values were obtained:
Experiment in all cases: biochemical
Type in all cases: binding
[1] = molecular target: 468 kinases including some pathogenic mutants (Homo sapiens, UniProt O94921); details: PFTK1 (Entrez CDK14), 100 nM; read-out: Percent Control
[2] = molecular target: 468 kinases including some pathogenic mutants (Homo sapiens, UniProt P28482); details: ERK2 (Entrez MAPK1), 100 nM; read-out: Percent Control
[3] = molecular target: 468 kinases including some pathogenic mutants (Homo sapiens, UniProt Q13153); details: PAK1 (Entrez PAK1), 100 nM; read-out: Percent Control
468 kinases including some pathogenic mutants (Homo sapiens, UniProt Q13153), sequence (Q13153 whole entry, change not shown): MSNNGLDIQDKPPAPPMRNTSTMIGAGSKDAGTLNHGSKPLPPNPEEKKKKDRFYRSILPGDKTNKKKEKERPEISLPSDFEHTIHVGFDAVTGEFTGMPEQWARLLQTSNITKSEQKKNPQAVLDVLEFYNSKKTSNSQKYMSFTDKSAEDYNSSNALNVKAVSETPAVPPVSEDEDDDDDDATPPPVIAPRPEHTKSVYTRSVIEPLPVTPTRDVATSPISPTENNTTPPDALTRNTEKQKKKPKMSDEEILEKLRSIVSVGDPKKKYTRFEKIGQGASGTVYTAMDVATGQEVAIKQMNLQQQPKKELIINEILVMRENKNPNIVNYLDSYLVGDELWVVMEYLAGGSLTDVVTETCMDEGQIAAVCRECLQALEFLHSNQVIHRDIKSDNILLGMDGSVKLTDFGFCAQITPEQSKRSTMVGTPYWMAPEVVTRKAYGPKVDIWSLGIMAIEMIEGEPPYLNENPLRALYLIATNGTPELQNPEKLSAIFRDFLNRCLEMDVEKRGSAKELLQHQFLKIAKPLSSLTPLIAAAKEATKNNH

[4] = molecular target: 468 kinases including some pathogenic mutants (Homo sapiens, UniProt O75582); details: 1000 nM, read-out: Percent Control
468 kinases including some pathogenic mutants (Homo sapiens, UniProt O75582), sequence (O75582 whole entry, change not shown): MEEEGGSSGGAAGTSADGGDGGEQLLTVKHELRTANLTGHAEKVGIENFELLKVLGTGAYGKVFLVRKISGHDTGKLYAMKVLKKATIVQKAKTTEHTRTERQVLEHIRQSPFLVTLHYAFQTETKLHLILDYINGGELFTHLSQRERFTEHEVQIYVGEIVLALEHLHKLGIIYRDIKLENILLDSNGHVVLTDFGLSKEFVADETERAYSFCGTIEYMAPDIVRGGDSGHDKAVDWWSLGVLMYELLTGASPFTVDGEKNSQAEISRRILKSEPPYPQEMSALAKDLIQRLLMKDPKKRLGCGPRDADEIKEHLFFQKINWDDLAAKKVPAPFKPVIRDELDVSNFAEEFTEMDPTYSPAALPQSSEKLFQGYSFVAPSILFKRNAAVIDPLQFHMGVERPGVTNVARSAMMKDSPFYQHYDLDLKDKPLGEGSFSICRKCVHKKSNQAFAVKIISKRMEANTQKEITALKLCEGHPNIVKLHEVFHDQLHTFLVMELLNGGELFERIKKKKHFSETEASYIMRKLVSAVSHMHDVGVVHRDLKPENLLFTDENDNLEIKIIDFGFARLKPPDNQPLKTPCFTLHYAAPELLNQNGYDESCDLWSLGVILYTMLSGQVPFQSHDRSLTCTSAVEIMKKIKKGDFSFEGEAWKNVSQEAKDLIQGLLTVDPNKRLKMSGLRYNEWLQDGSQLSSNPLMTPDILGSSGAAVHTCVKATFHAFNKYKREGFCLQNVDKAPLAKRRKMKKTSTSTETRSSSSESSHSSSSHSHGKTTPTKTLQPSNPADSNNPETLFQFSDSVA

[5] = molecular target: 468 kinases including some pathogenic mutants (Homo sapiens, UniProt P16234); details: PDGFRA (Entrez PDGFRA), 100 nM; read-out: Percent Control
[6] = molecular target: 468 kinases including some pathogenic mutants (Homo sapiens, UniProt O15197); details: EPHB6 (Entrez EPHB6), 100 nM; read-out: Percent Control
468 kinases including some pathogenic mutants (Homo sapiens, UniProt O15197), sequence (O15197 32-1021, change not shown): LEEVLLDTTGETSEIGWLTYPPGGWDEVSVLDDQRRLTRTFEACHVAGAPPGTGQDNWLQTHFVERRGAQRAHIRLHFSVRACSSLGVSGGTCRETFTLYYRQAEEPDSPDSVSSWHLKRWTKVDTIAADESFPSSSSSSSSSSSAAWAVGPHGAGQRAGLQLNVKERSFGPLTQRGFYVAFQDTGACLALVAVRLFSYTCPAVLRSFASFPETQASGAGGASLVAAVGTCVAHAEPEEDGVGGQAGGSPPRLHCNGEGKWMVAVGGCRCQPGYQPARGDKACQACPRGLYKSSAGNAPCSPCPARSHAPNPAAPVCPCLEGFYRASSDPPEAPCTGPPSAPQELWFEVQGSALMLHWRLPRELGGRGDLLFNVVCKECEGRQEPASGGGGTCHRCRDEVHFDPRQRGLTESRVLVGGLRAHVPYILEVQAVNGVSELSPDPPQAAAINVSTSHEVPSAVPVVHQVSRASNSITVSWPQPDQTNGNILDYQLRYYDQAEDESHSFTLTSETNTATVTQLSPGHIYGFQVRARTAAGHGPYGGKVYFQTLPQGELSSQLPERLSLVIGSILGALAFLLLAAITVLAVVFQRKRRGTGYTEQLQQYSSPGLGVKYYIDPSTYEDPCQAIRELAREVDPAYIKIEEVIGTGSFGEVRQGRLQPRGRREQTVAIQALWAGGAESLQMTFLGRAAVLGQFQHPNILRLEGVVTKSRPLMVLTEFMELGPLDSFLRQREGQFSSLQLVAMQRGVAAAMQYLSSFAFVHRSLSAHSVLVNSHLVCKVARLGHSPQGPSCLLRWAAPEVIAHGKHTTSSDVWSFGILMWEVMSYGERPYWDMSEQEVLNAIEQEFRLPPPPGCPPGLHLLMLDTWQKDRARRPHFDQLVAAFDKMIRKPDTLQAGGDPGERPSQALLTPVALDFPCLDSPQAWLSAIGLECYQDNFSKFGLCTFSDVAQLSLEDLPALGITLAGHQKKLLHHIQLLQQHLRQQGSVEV

[7] = molecular target: 468 kinases including some pathogenic mutants (Homo sapiens, UniProt Q96J92); details: WNK4 (Entrez WNK4), 1000 nM; read-out: Percent Control
468 kinases including some pathogenic mutants (Homo sapiens, UniProt Q96J92), sequence (Q96J92 whole entry, stated change not applied): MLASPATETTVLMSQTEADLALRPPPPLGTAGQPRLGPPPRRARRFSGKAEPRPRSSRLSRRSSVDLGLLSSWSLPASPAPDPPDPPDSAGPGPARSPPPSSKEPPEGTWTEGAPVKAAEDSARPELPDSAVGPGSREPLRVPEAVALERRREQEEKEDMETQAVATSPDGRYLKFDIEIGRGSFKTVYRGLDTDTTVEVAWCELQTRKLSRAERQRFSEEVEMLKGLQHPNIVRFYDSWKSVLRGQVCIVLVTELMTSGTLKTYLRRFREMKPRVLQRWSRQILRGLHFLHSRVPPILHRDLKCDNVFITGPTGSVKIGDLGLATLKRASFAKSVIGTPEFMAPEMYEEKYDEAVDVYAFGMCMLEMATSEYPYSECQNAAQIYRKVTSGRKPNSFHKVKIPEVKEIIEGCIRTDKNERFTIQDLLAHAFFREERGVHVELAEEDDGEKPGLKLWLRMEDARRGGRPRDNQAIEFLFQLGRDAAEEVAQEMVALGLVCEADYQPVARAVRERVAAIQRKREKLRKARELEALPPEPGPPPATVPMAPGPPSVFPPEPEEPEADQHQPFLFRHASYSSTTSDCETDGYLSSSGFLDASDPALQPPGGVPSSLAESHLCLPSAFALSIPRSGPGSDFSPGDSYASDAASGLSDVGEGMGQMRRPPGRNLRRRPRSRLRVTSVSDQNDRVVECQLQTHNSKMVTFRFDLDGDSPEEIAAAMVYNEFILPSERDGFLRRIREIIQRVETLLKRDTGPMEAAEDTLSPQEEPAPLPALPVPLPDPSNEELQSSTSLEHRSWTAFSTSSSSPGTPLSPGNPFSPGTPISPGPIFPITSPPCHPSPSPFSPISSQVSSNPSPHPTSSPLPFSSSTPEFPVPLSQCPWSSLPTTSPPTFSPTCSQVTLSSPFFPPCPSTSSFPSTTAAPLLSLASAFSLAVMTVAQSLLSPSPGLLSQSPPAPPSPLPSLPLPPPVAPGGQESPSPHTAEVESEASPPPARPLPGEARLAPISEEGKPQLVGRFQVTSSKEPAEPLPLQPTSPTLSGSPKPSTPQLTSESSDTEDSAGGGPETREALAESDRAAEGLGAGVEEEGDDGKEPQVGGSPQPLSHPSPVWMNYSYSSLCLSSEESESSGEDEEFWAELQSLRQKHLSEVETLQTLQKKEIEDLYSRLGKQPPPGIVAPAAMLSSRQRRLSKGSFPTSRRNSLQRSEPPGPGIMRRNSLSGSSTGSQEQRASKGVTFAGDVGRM

[8] = molecular target: 468 kinases including some pathogenic mutants (Homo sapiens, UniProt P36888, N841I); details: read-out: Percent Control
[9] = molecular target: 468 kinases including some pathogenic mutants (Homo sapiens, UniProt Q15759); details: p38-beta (Entrez MAPK11), 100 nM; read-out: Percent Control
[10] = molecular target: 468 kinases including some pathogenic mutants (Homo sapiens, UniProt Q9HBH9); details: MKNK2 (Entrez MKNK2), 1000 nM; read-out: Percent Control
[11] = molecular target: 468 kinases including some pathogenic mutants (Homo sapiens, UniProt P04049); details: RAF1 (Entrez RAF1), 1000 nM; read-out: Percent Control
[12] = molecular target: 468 kinases including some pathogenic mutants (Homo sapiens, UniProt Q9BQI3); details: EIF2AK1 (Entrez EIF2AK1), 100 nM; read-out: Percent Control
[13] = molecular target: 468 kinases including some pathogenic mutants (Homo sapiens, UniProt Q9P289); details: MST4 (Entrez MST4), 100 nM; read-out: Percent Control
[14] = molecular target: 468 kinases including some pathogenic mutants (Homo sapiens, UniProt P54756); details: EPHA5 (Entrez EPHA5), 100 nM; read-out: Percent Control
[15] = molecular target: 468 kinases including some pathogenic mutants (Homo sapiens, UniProt P00519, F317I); details: read-out: Percent Control
[16] = molecular target: 468 kinases including some pathogenic mutants (Homo sapiens, UniProt P10721, V559D/V654A); details: read-out: Percent Control
[17] = molecular target: 468 kinases including some pathogenic mutants (Homo sapiens, UniProt P35916); details: FLT4 (Entrez FLT4), 100 nM; read-out: Percent Control
[18] = molecular target: 468 kinases including some pathogenic mutants (Homo sapiens, UniProt P19525); details: PRKR (Entrez EIF2AK2), 1000 nM; read-out: Percent Control
[19] = molecular target: 468 kinases including some pathogenic mutants (Homo sapiens, UniProt Q52WX2); details: SBK1 (Entrez SBK1), 1000 nM; read-out: Percent Control
468 kinases including some pathogenic mutants (Homo sapiens, UniProt Q52WX2), sequence (Q52WX2 whole entry, change not shown): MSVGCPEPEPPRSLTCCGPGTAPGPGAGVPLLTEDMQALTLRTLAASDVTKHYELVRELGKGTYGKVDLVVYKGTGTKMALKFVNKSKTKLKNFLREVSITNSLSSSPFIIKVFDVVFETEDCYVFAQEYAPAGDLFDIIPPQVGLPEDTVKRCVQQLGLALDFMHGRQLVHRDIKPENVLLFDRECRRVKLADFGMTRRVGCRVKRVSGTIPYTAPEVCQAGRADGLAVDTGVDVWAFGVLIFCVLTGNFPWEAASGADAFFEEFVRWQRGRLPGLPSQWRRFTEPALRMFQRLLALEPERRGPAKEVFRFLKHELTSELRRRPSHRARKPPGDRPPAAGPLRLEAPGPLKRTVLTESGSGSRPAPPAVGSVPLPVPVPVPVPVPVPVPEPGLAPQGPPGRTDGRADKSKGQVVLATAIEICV

[20] = molecular target: 468 kinases including some pathogenic mutants (Homo sapiens, UniProt P54762); details: EPHB1 (Entrez EPHB1), 100 nM; read-out: Percent Control
468 kinases including some pathogenic mutants (Homo sapiens, UniProt P54762), sequence (P54762 18-984, change not shown): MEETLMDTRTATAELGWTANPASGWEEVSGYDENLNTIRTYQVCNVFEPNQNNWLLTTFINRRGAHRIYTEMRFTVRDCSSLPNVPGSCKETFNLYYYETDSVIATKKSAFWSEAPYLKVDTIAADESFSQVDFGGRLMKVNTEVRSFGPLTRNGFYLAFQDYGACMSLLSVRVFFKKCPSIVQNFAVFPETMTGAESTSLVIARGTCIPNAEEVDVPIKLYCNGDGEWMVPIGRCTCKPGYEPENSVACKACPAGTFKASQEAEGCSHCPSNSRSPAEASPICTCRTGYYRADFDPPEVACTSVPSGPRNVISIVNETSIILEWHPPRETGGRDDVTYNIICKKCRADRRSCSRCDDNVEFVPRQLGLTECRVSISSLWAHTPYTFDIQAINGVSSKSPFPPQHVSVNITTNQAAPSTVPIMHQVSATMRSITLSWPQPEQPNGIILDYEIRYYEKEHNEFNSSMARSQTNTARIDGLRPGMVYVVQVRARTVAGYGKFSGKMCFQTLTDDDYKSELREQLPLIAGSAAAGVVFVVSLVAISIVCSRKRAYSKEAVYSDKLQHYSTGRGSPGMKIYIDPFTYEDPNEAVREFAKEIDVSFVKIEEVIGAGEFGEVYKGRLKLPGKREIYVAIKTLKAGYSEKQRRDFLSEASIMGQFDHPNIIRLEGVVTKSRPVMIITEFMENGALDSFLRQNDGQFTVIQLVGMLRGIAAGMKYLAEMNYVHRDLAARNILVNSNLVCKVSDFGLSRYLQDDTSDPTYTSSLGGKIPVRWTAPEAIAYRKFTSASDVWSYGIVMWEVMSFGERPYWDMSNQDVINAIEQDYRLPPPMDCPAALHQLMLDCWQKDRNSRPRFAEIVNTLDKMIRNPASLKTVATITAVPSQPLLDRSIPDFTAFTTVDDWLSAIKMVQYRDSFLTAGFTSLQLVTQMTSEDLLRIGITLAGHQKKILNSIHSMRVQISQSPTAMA

[21] = molecular target: 468 kinases including some pathogenic mutants (Homo sapiens, UniProt Q13554); details: CAMK2B (Entrez CAMK2B), 100 nM; read-out: Percent Control
[22] = molecular target: 468 kinases including some pathogenic mutants (Homo sapiens, UniProt Q86V86); details: PIM3 (Entrez PIM3), 100 nM; read-out: Percent Control
[23] = molecular target: 468 kinases including some pathogenic mutants (Homo sapiens, UniProt Q9H3Y6); details: SRMS (Entrez SRMS), 1000 nM; read-out: Percent Control
[24] = molecular target: 468 kinases including some pathogenic mutants (Homo sapiens, UniProt P42679); details: CTK (Entrez MATK), 100 nM; read-out: Percent Control
[25] = molecular target: 468 kinases including some pathogenic mutants (Homo sapiens, UniProt Q96SB4); details: SRPK1 (Entrez SRPK1), 100 nM; read-out: Percent Control
[26] = molecular target: 468 kinases including some pathogenic mutants (Homo sapiens, UniProt Q13188); details: MST2 (Entrez STK3), 100 nM; read-out: Percent Control
[27] = molecular target: 468 kinases including some pathogenic mutants (Homo sapiens, UniProt P42336, E545A); details: read-out: Percent Control
[28] = molecular target: 468 kinases including some pathogenic mutants (Homo sapiens, UniProt Q8NEV4); details: MYO3A (Entrez MYO3A), 100 nM; read-out: Percent Control

CN1C(=O)[C@@H](N2CCc3c(nn(Cc4ccccc4)c3C(N)=O)C2=O)COc2cc(Cl)ccc21 [Compound 10, (S)-2-benzyl-6-(8-chloro-5-methyl-4-oxo-2,3,4,5-tetrahydrobenzo[b][1,4]oxazepin-3-yl)-7-oxo-4,5,6,7-tetrahydro-2H-pyrazolo[3,4-c]pyridine-3-carboxamide]
remaining activity at 0.1 µM [1]: 95% | remaining activity at 0.1 µM [2]: 77% | remaining activity at 0.1 µM [3]: 88% | remaining activity at 1 µM ([4]; RPS6KA5(Kin.Dom.1-N-terminal) (Entrez RPS6KA5)): 100% | remaining activity at 1 µM ([4]; RPS6KA5(Kin.Dom.2-C-terminal) (Entrez RPS6KA5)): 100% | remaining activity at 0.1 µM [5]: 89% | remaining activity at 0.1 µM [6]: 91% | remaining activity at 1 µM [7]: 100% | remaining activity at 0.1 µM [8]: 72% | remaining activity at 0.1 µM [9]: 100% | remaining activity at 1 µM [10]: 100% | remaining activity at 1 µM [11]: 100% | remaining activity at 0.1 µM [12]: 100% | remaining activity at 0.1 µM [13]: 77% | remaining activity at 0.1 µM [14]: 74% | remaining activity at 0.1 µM [15]: 87% | remaining activity at 0.1 µM [16]: 82% | remaining activity at 0.1 µM [17]: 76% | remaining activity at 1 µM [18]: 100% | remaining activity at 1 µM [19]: 100% | remaining activity at 0.1 µM [20]: 95% | remaining activity at 0.1 µM [21]: 67% | remaining activity at 0.1 µM [22]: 87% | remaining activity at 1 µM [23]: 100% | remaining activity at 0.1 µM [24]: 100% | remaining activity at 0.1 µM [25]: 100% | remaining activity at 0.1 µM [26]: 64% | remaining activity at 1 µM [27]: 100% | remaining activity at 0.1 µM [28]: 83%
